The assay deals with T1, GABAA2 receptors (α2, β3, γ3 receptor subunits transfected into Sf9 cells) (Homo sapiens, UniProt P47869+Q99928).
T1 construct: host or cells: Sf9 cells (membranes)
T1 sequence (P47869 29-451): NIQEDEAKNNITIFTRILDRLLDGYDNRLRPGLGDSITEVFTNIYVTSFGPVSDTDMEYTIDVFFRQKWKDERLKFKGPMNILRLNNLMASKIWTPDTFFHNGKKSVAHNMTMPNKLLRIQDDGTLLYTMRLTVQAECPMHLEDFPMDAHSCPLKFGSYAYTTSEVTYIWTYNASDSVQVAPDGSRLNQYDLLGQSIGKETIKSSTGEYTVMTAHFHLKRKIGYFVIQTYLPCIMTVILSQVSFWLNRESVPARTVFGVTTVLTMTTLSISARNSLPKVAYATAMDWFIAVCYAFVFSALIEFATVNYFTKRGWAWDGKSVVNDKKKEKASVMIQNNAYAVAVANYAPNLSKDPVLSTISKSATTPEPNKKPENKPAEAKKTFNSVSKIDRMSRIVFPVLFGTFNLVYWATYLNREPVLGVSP
T1 sequence (P28472 26-473 partner): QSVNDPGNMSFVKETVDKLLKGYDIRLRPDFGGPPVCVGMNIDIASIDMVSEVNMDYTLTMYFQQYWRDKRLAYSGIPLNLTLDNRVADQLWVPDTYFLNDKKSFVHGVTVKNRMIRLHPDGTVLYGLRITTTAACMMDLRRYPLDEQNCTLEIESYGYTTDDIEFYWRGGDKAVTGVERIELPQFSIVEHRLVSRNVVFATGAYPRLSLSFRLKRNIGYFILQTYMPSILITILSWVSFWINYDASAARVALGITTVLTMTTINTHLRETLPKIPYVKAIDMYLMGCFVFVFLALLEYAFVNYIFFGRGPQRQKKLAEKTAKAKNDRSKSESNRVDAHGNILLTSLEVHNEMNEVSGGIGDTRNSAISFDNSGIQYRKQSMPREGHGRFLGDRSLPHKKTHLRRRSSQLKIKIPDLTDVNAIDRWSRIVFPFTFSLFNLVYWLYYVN
T1 sequence (Q99928 18-467): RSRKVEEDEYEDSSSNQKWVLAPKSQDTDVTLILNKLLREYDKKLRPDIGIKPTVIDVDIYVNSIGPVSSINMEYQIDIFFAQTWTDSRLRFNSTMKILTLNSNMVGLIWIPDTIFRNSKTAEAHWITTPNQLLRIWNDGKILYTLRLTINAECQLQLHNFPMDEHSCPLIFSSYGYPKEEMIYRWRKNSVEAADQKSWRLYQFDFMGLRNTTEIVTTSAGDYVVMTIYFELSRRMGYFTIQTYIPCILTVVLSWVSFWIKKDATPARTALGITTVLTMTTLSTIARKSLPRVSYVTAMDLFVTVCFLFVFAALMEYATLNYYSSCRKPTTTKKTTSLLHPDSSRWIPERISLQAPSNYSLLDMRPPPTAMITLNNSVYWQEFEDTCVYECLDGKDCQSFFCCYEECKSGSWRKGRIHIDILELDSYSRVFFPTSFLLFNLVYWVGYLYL
The assay can be described thus: GABAA2 binding method ([3H]-flunitrazepam displacement). The conditions noted are these: [3H]-flunitrazepam ~2 nM, Sf9 membranes, 1 hr at 4° C. The method, then:
In some embodiments, the binding test was directed to a subtype of GABAA receptors, such as GABAA1 receptors (i.e., those containing the α1 subunit), GABAA2 receptors (i.e., those containing the α2 subunit), GABAA3 receptors (i.e., those containing the α3 subunit) and GABAA5 receptors (i.e., those containing the α5 subunit).
• Assay and Wash Buffer: 50 mM Tris-Citrate, 200 mM NaCl, pH 7.8 Compounds at 10 mM in DMSO: Put 75 μl in column 1 of compound plate.
Flumazenil, 10 mM (for NSB)
[^3H]-Flunitrazepam (Cat #NET567): Prepare 10× stock=20 nM, [F} in assay=˜2 nM
1. […] Add 5 ul of 30 uM flumazenil to wells 12 D-E for 50% control wells.
2. Spot 2 μl of compound dilutions into dry plate (Automation Program 3). Manually spot 2 μl 10 mM flumazenil into wells 12 F-H for nonspecific control.
3. Make 1:100 dilution in assay buffer (2 μl into 200 μl) and dispense 25 μl compound into assay plates (Automation Program 4).
4. Dispense 200 μl membranes into assay plate (Automation Program 5).
5. Add 25 μl [^3H]-Flunitrazepam (Automation Program 6). Incubate for 1 hr at 4° C.
6. Collect membranes on a cell harvester onto GF/B filter plates (pre-wet with dH2O and wash 5× 400 μl/well, with cold assay buffer. (First 3 washes are considered hot; last two are cold.)
7. Dry plates for 2-3 hours at RT.
8. Add 40 μl Microscint 40/well (Automation Program 7); seal plates. Count on a TopCount.
Data is analyzed by calculating percent of control, IC50, and Ki in an XLfit template. The following formula is used in the templates: […]

Compound `CCCNC(=O)c1nnc2c(-c3cnccn3)cccc2c1N` showed a Ki of 20.4 nM. `CCNC(=O)c1nnc2c(-c3cnc(OC)nc3OC)cccc2c1N`: the Ki came to 14.4 nM. As to `CCCNC(=O)c1nnc2c(-c3cc(Cl)ccc3OC)cccc2c1N`, the inhibition constant Ki is 1.11 nM. Against the preceding compound, the Ki is about 13-fold lower. The same measure for `CCCNC(=O)c1nnc2c(-c3cnc4ccccc4c3)cccc2c1N`: 12.3 nM; for `COc1ccc(-c2cccc3c(N)c(C(=O)NC4CCC4)nnc23)c(OC)c1`: 0.927 nM. As to `CCCNC(=O)c1nnc2c(-c3ccc(OC)cc3OC)c(C#N)ccc2c1N`, the Ki was determined as 2.69 nM. This Ki lies about 2.9-fold higher than the previous one. The same measure for `CCCNC(=O)c1nnc2c(-c3cc(Cl)cc(Cl)c3)c(F)ccc2c1N`: 16.1 nM. The same measure for `COc1ccc(-c2cccc3c(N)c(C(=O)NC4CC4)nnc23)c(OC)n1`: 1 nM; for `CCCNC(=O)c1nnc2c(-c3cc(C)ccc3OC)c(F)ccc2c1N`: 0.937 nM. `CCCNC(=O)c1nnc2c(-c3nc(Br)ccc3OC)cccc2c1N` yielded a Ki of 7.51 nM. This Ki lies about 8-fold higher than the previous one. As for `CCCNC(=O)c1nnc2c(-c3ccccc3C(F)(F)F)cccc2c1N`, the affinity, expressed as Ki, was 0.364 nM. This Ki is about 21-fold lower than that of the compound before. The same measure for `CCCNC(=O)c1nnc2c(-c3cccc(C#N)c3)cccc2c1N`: 1.18 nM. `CCCNC(=O)c1nnc2c(-c3cc(F)ccc3F)c(F)ccc2c1N` registered a Ki of 45.8 nM. The same measure for `CCCNC(=O)c1nnc2c(-c3ccc(OC)cc3F)c(F)ccc2c1N`: 0.613 nM; for `CCCNC(=O)c1nnc2c(-c3ccccc3)c(OC)ccc2c1N`: 91.4 nM. On to `CCCNC(=O)c1nnc2c(-c3cc(C)ccc3F)cccc2c1N`, for which the Ki amounted to 0.852 nM. Against the preceding compound, the Ki is about 110-fold lower. `CCCNC(=O)c1nnc2c(-c3c(OC)cccc3OC)cccc2c1N` had a Ki of 624 nM.

On to `Cc1ccc(-c2cccc3c(N)c(C(=O)NC4CC4)nnc23)cn1`, for which the Ki came to 4.02 nM. The result for `CCCNC(=O)c1nnc2c(-c3ccc4ccccc4c3)cccc2c1N` reads 43.3 nM; that for `CCCNC(=O)c1nnc2c(-c3cccc(C(=O)N4CCC4)c3)cccc2c1N`, 3.44 nM. With `CCCNC(=O)c1nnc2c(-c3cnc(OC)nc3)cccc2c1N`, affinity was put at a Ki of 19.5 nM. In the case of `CCCNC(=O)c1nnc2c(-c3cnc(OC)nc3OC)c(F)ccc2c1N`, the Ki turned out to be 0.918 nM. The same measure for `CCCNC(=O)c1nnc2c(-c3ccc4[nH]ccc4c3)cccc2c1N`: 35 nM; for `CCCNC(=O)c1nnc2c(-c3cccc(Cl)c3)cccc2c1N`: 12.3 nM; for `CCCNC(=O)c1nnc2c(-c3cc(F)ccc3F)cccc2c1N`: 0.996 nM.

Regarding `CCCNC(=O)c1nnc2c(-c3cc(C(F)(F)F)ccc3Cl)cccc2c1N`, the Ki amounted to 1.36 nM. For the compound `CCCNC(=O)c1nnc2c(-c3cccc(OC)c3F)cccc2c1N`, affinity was put at a Ki of 3.41 nM. In turn, `CCCNC(=O)c1nnc2c(-c3ccc(OC)c(OC)c3)cccc2c1N` yielded a Ki of 3.88 nM. This Ki and that of the compound before are within 1.5-fold of each other.

Take `CCCNC(=O)c1nnc2c(-c3cc(F)c(OC)cc3F)cccc2c1N`: the Ki was 1.49 nM. This Ki is about 2.6-fold lower than that of the compound before. Regarding `CCCNC(=O)c1nnc2c(-c3c(F)cccc3OC)c(F)ccc2c1N`, the affinity corresponds to a Ki of 0.341 nM. Compound `CCCNC(=O)c1nnc2c(-c3ccc(C)c(C)c3)cccc2c1N` yielded a Ki of 16.8 nM. The result for `CCCNC(=O)c1nnc2c(-c3cnccc3C)cccc2c1N` reads 1.68 nM; that for `CCCNC(=O)c1nnc2c(-c3cccnc3)cccc2c1N`, 2.6 nM; that for `COc1ccc(F)cc1-c1cccc2c(N)c(C(=O)NC3CC3)nnc12`, 8.22 nM. `COc1ccc(C)cc1-c1cccc2c(N)c(C(=O)NC3CC3)nnc12` returned a Ki of 15.2 nM. This Ki lies about 1.8-fold higher than the previous one.

Consider `CCCNC(=O)c1nnc2c(-c3cc(C(F)(F)F)cc(C(F)(F)F)c3)cccc2c1N`, for which the Ki was 356 nM. The compound `CCCNC(=O)c1nnc2c(-c3ccc(F)cc3OCC)c(F)ccc2c1N` gave a Ki of 1.03 nM.

Consider `CCNC(=O)c1nnc2c(-c3cnc(OC)c(F)c3)cccc2c1N`, for which the Ki is 9 nM.

`COc1ccncc1-c1cccc2c(N)c(C(=O)NC3CC3)nnc12` showed an inhibition constant Ki of 0.785 nM. As to `CCCNC(=O)c1nnc2c(-c3ccc(OC)cc3)cccc2c1N`, the Ki worked out at 15.4 nM. Against the preceding compound, the Ki is about 20-fold higher. Consider `CCCNC(=O)c1nnc2c(-c3ccc(N(C)C)cc3)cccc2c1N`, for which affinity was put at a Ki of 26.6 nM.

Regarding `CCCNC(=O)c1nnc2c(-c3cccc(C)c3C)c(F)ccc2c1N`, the Ki is 0.615 nM. With `CCCNC(=O)c1nnc2c(-c3cccc(F)c3OC)cccc2c1N`, the affinity, expressed as Ki, was 10.9 nM. Consider `CCCNC(=O)c1nnc2c(-c3ccc(F)c(F)c3)cccc2c1N`, for which the affinity corresponds to a Ki of 20 nM. The result for `CCNC(=O)c1nnc2c(-c3cc(C)ccc3OC)cccc2c1N` reads 10.5 nM. As for `CCCNC(=O)c1nnc2c(-c3ccc(F)cc3F)cccc2c1N`, affinity was put at a Ki of 1.72 nM. `CCCNC(=O)c1nnc2c(-c3cccc(F)c3F)cccc2c1N` came in with a Ki of 0.558 nM.

For `CCCNC(=O)c1nnc2c(-c3ccc(OC)c(C)c3)cccc2c1N`, the Ki turned out to be 17.6 nM. Compared with the last compound, the Ki is about 32-fold higher.

`CCCNC(=O)c1nnc2c(-c3cc(F)ccc3C)c(F)ccc2c1N` gave a Ki of 0.735 nM. This Ki is about 24-fold lower than that of the compound before. As to `CCCNC(=O)c1nnc2c(-c3cc(OC)ccc3Cl)c(F)ccc2c1N`, the affinity corresponds to a Ki of 1.25 nM.

`CCCNC(=O)c1nnc2c(-c3cc(F)ccc3C)cccc2c1N` had an inhibition constant (Ki) of 5.56 nM. The same measure for `CCCCNC(=O)c1nnc2c(-c3cnccc3OC)cccc2c1N`: 1.84 nM.

In the case of `CCCNC(=O)c1nnc2c(-c3cc(OC)ccc3OC)c(Cl)ccc2c1N`, affinity was put at a Ki of 13.9 nM. Compared with the last compound, the Ki is about 7.6-fold higher. For `CCCNC(=O)c1nnc2c(-c3cccc(OC)c3F)c(F)ccc2c1N`, affinity was put at a Ki of 0.941 nM.

As for `CCCNC(=O)c1nnc2c(-c3cccc(C(=O)O)c3)cccc2c1N`, affinity was put at a Ki of 53.8 nM. `CCCNC(=O)c1nnc2c(-c3ccc(C)nc3F)cccc2c1N`: the Ki was 1.67 nM. `COc1cccc(F)c1-c1cccc2c(N)c(C(=O)NC3CC3)nnc12` displayed a Ki of 0.698 nM. `CCCNC(=O)c1nnc2c(-c3cc(OC)cc(OC)c3)cccc2c1N` registered a Ki of 5 nM.

`CCCNC(=O)c1nnc2c(-c3cc(C(=O)N4CCC4)ccc3OC)cccc2c1N`: the Ki came to 18.4 nM. For the compound `CCCNC(=O)c1nnc2c(-c3cc(C)ccc3OC)c(Cl)ccc2c1N`, the Ki stood at 2.89 nM.

`COc1ncccc1-c1cccc2c(N)c(C(=O)NC3CC3)nnc12`: the affinity, expressed as Ki, was 0.501 nM. This Ki is about 5.8-fold lower than that of the compound before.

In turn, `CCCNC(=O)c1nnc2c(-c3ccc(OC)c(F)c3)cccc2c1N` showed a Ki of 20.2 nM. Take `CCCNC(=O)c1nnc2c(-c3ccc(OC)cc3OC)c(Cl)ccc2c1N`: the Ki turned out to be 5.71 nM. For the compound `CCCNC(=O)c1nnc2c(-c3cc(C)ccc3C)c(F)ccc2c1N`, the affinity corresponds to a Ki of 1.31 nM. `CCCNC(=O)c1nnc2c(-c3ccc(OC)cc3OC)cccc2c1N`: the affinity, expressed as Ki, was 2.5 nM.

`CCCNC(=O)c1nnc2c(-c3cc(C)c(OC)c(C)c3)cccc2c1N` showed a Ki of 35.8 nM.

`CCCNC(=O)c1nnc2c(-c3cc(F)ccc3OC)c(F)ccc2c1N` displayed a Ki of 0.98 nM. Compound `CCCNC(=O)c1nnc2c(-c3cc(F)cc(F)c3OC)c(F)ccc2c1N` gave a Ki of 5.78 nM. For the compound `CCCNC(=O)c1nnc2c(-c3cccnc3OC)cccc2c1N`, affinity was put at a Ki of 2.1 nM.

The term Ki denotes the equilibrium dissociation constant of an inhibitor or competing ligand from its target. Lower therefore signals higher affinity.

The record behind these values is patent publication US20080318925A1 (ASTRAZENECA AB, priority 2007, published 2008).
